According to PubChem BioAssay AID1963986 (Molecular Pharmacology Branch, DTP, NCI, 2024):

System: 171881-019-R-J1-PDC tumor spheroid viability
Experiment: Anticancer human tumor 171881-019-R-J1-PDC patient-derived invasive breast carcinoma cell line growth inhibition [PI3K]
Conditions: spheroids with HUVEC and MSC; for IC50: curve of first compound; for viability, T/C: stronger effect = lower value
Summary of the method: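 Targeted small molecules plus PI3K inhibitors, half-log dose series from Cmax (default top 10 microM), were applied to heterotypic spheroids of cancer cells with HUVEC and MSCs. Viability indicated growth inhibition.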

[1] = second compound 0.00316 µM, first compound 0.0316 µM
[2] = second compound 0.00316 µM, first compound 0.1 µM
[3] = second compound 0.01 µM, first compound 0.0316 µM
[4] = second compound 0.01 µM, first compound 0.1 µM
[5] = second compound 0.0316 µM, first compound 0.0316 µM
[6] = second compound 0.0316 µM, first compound 0.1 µM
[7] = second compound 0.1 µM, first compound 0.0316 µM
[8] = second compound 0.1 µM, first compound 0.1 µM
[9] = second compound 0.316 µM, first compound 0.0316 µM
[10] = second compound 0.316 µM, first compound 0.1 µM
[11] = second compound 1 µM, first compound 0.0316 µM
[12] = second compound 1 µM, first compound 0.1 µM
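Also: spheroids exposed to compound for 7 days before viability read.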
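For viability, T/C in this document: 100% = DMSO vehicle-treated spheroids.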

Q: How did the IC50 (second compound 0.00316 µM) turn out when `CC(C)n1nc(-c2ccc3oc(N)nc3c2)c2c(N)ncnc21` + COc1c(OCCCN2CCOCC2)ccc2c3n(c(=NC(=O)c4cnc(N)nc4)nc12)CCN3 was run?
A: The IC50 was 3.55 nM.

Q: What about the IC50 (second compound 0.01 µM) of the same molecule?
A: The IC50 was less than 0.316 nM.

Q: And the IC50 (second compound 0.0316 µM)?
A: Its IC50 is less than 0.316 nM.

Q: What about the IC50 (second compound 0.1 µM) of the same molecule?
A: Its IC50 is less than 0.316 nM.

Q: And the IC50 (second compound 0.316 µM)?
A: Its IC50 is less than 0.316 nM.

Q: And the IC50 (second compound 1 µM)?
A: Its IC50 is less than 0.316 nM.

Q: What about the viability, T/C (second compound 0.00316 µM, first compound 0.000316 µM) of the same molecule?
A: The viability, T/C was 61.1%.

Q: What about the viability, T/C (second compound 0.00316 µM, first compound 0.001 µM) of the same molecule?
A: Its viability, T/C is 66.3%.

Q: And the viability, T/C (second compound 0.00316 µM, first compound 0.00316 µM)?
A: The viability, T/C was 47.6%.

Q: And the viability, T/C (second compound 0.00316 µM, first compound 0.01 µM)?
A: The viability, T/C was 36.1%.

Q: What about the viability, T/C [1] of the same molecule?
A: The viability, T/C was 13.1%.

Q: What about the viability, T/C [2] of the same molecule?
A: Its viability, T/C is 3.55%.

Q: What about the viability, T/C (second compound 0.01 µM, first compound 0.000316 µM) of the same molecule?
A: The viability, T/C was 46%.

Q: What about the viability, T/C (second compound 0.01 µM, first compound 0.001 µM) of the same molecule?
A: Its viability, T/C is 45.8%.

Q: What about the viability, T/C (second compound 0.01 µM, first compound 0.00316 µM) of the same molecule?
A: The viability, T/C was 36.4%.

Q: What about the viability, T/C (second compound 0.01 µM, first compound 0.01 µM) of the same molecule?
A: The viability, T/C was 19.3%.

Q: What about the viability, T/C [3] of the same molecule?
A: The viability, T/C was 8.72%.

Q: And the viability, T/C [4]?
A: Its viability, T/C is 2.78%.

Q: What about the viability, T/C (second compound 0.0316 µM, first compound 0.000316 µM) of the same molecule?
A: The viability, T/C was 23.6%.

Q: And the viability, T/C (second compound 0.0316 µM, first compound 0.001 µM)?
A: The viability, T/C was 22.3%.

Q: What about the viability, T/C (second compound 0.0316 µM, first compound 0.00316 µM) of the same molecule?
A: The viability, T/C was 16%.

Q: And the viability, T/C (second compound 0.0316 µM, first compound 0.01 µM)?
A: Its viability, T/C is 8.85%.

Q: What about the viability, T/C [5] of the same molecule?
A: Its viability, T/C is 4.14%.

Q: What about the viability, T/C [6] of the same molecule?
A: Its viability, T/C is 2.34%.

Q: What about the viability, T/C (second compound 0.1 µM, first compound 0.000316 µM) of the same molecule?
A: The viability, T/C was 8.49%.

Q: What about the viability, T/C (second compound 0.1 µM, first compound 0.001 µM) of the same molecule?
A: Its viability, T/C is 7.85%.

Q: And the viability, T/C (second compound 0.1 µM, first compound 0.00316 µM)?
A: The viability, T/C was 5.37%.

Q: What about the viability, T/C (second compound 0.1 µM, first compound 0.01 µM) of the same molecule?
A: Its viability, T/C is 3.59%.

Q: And the viability, T/C [7]?
A: The viability, T/C was 2.66%.

Q: What about the viability, T/C [8] of the same molecule?
A: The viability, T/C was 1.6%.

Q: What about the viability, T/C (second compound 0.316 µM, first compound 0.000316 µM) of the same molecule?
A: The viability, T/C was 2.47%.

Q: What about the viability, T/C (second compound 0.316 µM, first compound 0.001 µM) of the same molecule?
A: The viability, T/C was 2.41%.

Q: And the viability, T/C (second compound 0.316 µM, first compound 0.00316 µM)?
A: Its viability, T/C is 2.58%.

Q: And the viability, T/C (second compound 0.316 µM, first compound 0.01 µM)?
A: The viability, T/C was 1.51%.

Q: And the viability, T/C [9]?
A: The viability, T/C was 1.36%.

Q: What about the viability, T/C [10] of the same molecule?
A: The viability, T/C was 1.1%.

Q: What about the viability, T/C (second compound 1 µM, first compound 0.000316 µM) of the same molecule?
A: Its viability, T/C is 1.08%.

Q: What about the viability, T/C (second compound 1 µM, first compound 0.001 µM) of the same molecule?
A: The viability, T/C was 0.86%.

Q: What about the viability, T/C (second compound 1 µM, first compound 0.00316 µM) of the same molecule?
A: The viability, T/C was 1.3%.

Q: What about the viability, T/C (second compound 1 µM, first compound 0.01 µM) of the same molecule?
A: Its viability, T/C is 1.16%.

Q: What about the viability, T/C [11] of the same molecule?
A: Its viability, T/C is 1.03%.

Q: What about the viability, T/C [12] of the same molecule?
A: The viability, T/C was 1.05%.

Q: Which IC50 (second compound 0.00316 µM) does the source give for `CC1(C)CCC(CN2CCN(c3ccc(C(=O)NS(=O)(=O)c4ccc(NCC5CCOCC5)c([N+](=O)[O-])c4)c(Oc4cnc5[nH]ccc5c4)c3)CC2)=C(c2ccc(Cl)cc2)C1` + COc1c(OCCCN2CCOCC2)ccc2c3n(c(=NC(=O)c4cnc(N)nc4)nc12)CCN3 here?
A: The IC50 was greater than 10000 nM.

Q: And the IC50 (second compound 0.01 µM)?
A: Its IC50 is 1070 nM.

Q: And the IC50 (second compound 0.0316 µM)?
A: Its IC50 is less than 31.6 nM.

Q: What about the IC50 (second compound 0.1 µM) of the same molecule?
A: The IC50 was less than 31.6 nM.

Q: What about the IC50 (second compound 0.316 µM) of the same molecule?
A: Its IC50 is less than 31.6 nM.

Q: And the IC50 (second compound 1 µM)?
A: The IC50 was less than 31.6 nM.

Q: What about the viability, T/C [1] of the same molecule?
A: The viability, T/C was 67.9%.

Q: What about the viability, T/C [2] of the same molecule?
A: The viability, T/C was 71.5%.

Q: What about the viability, T/C (second compound 0.00316 µM, first compound 0.316 µM) of the same molecule?
A: Its viability, T/C is 76.5%.

Q: And the viability, T/C (second compound 0.00316 µM, first compound 1 µM)?
A: Its viability, T/C is 75.8%.

Q: What about the viability, T/C (second compound 0.00316 µM, first compound 3.16 µM) of the same molecule?
A: The viability, T/C was 50.7%.

Q: And the viability, T/C (second compound 0.00316 µM, first compound 10 µM)?
A: The viability, T/C was 56.9%.

Q: And the viability, T/C [3]?
A: The viability, T/C was 50.3%.

Q: What about the viability, T/C [4] of the same molecule?
A: Its viability, T/C is 54.2%.

Q: What about the viability, T/C (second compound 0.01 µM, first compound 0.316 µM) of the same molecule?
A: Its viability, T/C is 52.1%.

Q: What about the viability, T/C (second compound 0.01 µM, first compound 1 µM) of the same molecule?
A: The viability, T/C was 50.6%.

Q: And the viability, T/C (second compound 0.01 µM, first compound 3.16 µM)?
A: The viability, T/C was 36.4%.

Q: And the viability, T/C (second compound 0.01 µM, first compound 10 µM)?
A: The viability, T/C was 46.5%.

Q: And the viability, T/C [5]?
A: Its viability, T/C is 31.2%.

Q: What about the viability, T/C [6] of the same molecule?
A: The viability, T/C was 27.1%.

Q: And the viability, T/C (second compound 0.0316 µM, first compound 0.316 µM)?
A: Its viability, T/C is 26.7%.

Q: What about the viability, T/C (second compound 0.0316 µM, first compound 1 µM) of the same molecule?
A: Its viability, T/C is 31.9%.

Q: And the viability, T/C (second compound 0.0316 µM, first compound 3.16 µM)?
A: Its viability, T/C is 27.6%.

Q: What about the viability, T/C (second compound 0.0316 µM, first compound 10 µM) of the same molecule?
A: Its viability, T/C is 27.7%.

Q: And the viability, T/C [7]?
A: Its viability, T/C is 9.62%.

Q: What about the viability, T/C [8] of the same molecule?
A: The viability, T/C was 8.56%.

Q: What about the viability, T/C (second compound 0.1 µM, first compound 0.316 µM) of the same molecule?
A: Its viability, T/C is 8.91%.

Q: And the viability, T/C (second compound 0.1 µM, first compound 1 µM)?
A: Its viability, T/C is 8.46%.

Q: What about the viability, T/C (second compound 0.1 µM, first compound 3.16 µM) of the same molecule?
A: The viability, T/C was 8.91%.

Q: What about the viability, T/C (second compound 0.1 µM, first compound 10 µM) of the same molecule?
A: The viability, T/C was 7.62%.

Q: And the viability, T/C [9]?
A: The viability, T/C was 2.51%.

Q: And the viability, T/C [10]?
A: Its viability, T/C is 1.88%.

Q: And the viability, T/C (second compound 0.316 µM, first compound 0.316 µM)?
A: The viability, T/C was 2.5%.

Q: And the viability, T/C (second compound 0.316 µM, first compound 1 µM)?
A: The viability, T/C was 2.1%.

Q: And the viability, T/C (second compound 0.316 µM, first compound 3.16 µM)?
A: Its viability, T/C is 1.72%.

Q: And the viability, T/C (second compound 0.316 µM, first compound 10 µM)?
A: Its viability, T/C is 1.63%.

Q: And the viability, T/C [11]?
A: Its viability, T/C is 1.35%.

Q: What about the viability, T/C [12] of the same molecule?
A: The viability, T/C was 0.89%.

Q: And the viability, T/C (second compound 1 µM, first compound 0.316 µM)?
A: The viability, T/C was 1.13%.

Q: What about the viability, T/C (second compound 1 µM, first compound 1 µM) of the same molecule?
A: Its viability, T/C is 0.95%.

Q: What about the viability, T/C (second compound 1 µM, first compound 3.16 µM) of the same molecule?
A: Its viability, T/C is 1.02%.

Q: And the viability, T/C (second compound 1 µM, first compound 10 µM)?
A: Its viability, T/C is 0.92%.
